Assay results from US9481648B2, “Kinase inhibitors” (Respivert Limited, priority 2013, dated 2016).
Where two headings read alike, the source gives them in different places.

Columns and labels:
[1] = target: Lck (Homo sapiens (Human), UniProt P06239); experiment: KINOMEscan enzyme binding assay (dissociation constant)
Protocol: (§1) Kinase enzyme binding activities of compounds disclosed herein may be determined using a proprietary assay which measures active site-directed competition binding to an immobilized ligand (Fabian, M. A. et al., Nature Biotechnol., 2005, 23:329-336). These assays may be conducted by DiscoverX (formerly Ambit; San Diego, Calif.). The percentage inhibition produced by incubation with a test compound may be calculated relative to the non-inhibited control.

[2] = target: Syk (Homo sapiens (Human), UniProt P43405); experiment: as above
Protocol: as §1

[3] = target: p38 MAPKα (Homo sapiens (Human), UniProt Q16539); experiment: as above
Protocol: as §1

[4] = target: c-Src (Homo sapiens (Human), UniProt P12931); experiment: c-Src enzyme inhibition (FRET, Z-LYTE); type: biochemical
Method in brief: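 Syk or c-Src enzyme (3000 or 2000 ng/mL solutions) was preincubated 2 h at RT with compound solutions at 1, 0.1, 0.01 or 0.001 µg/mL. Z-LYTE FRET peptide (8 µM solution) and ATP (800 µM solution for c-Src, 60 µM for Syk) were then added for 1 h, followed by protease development for 1 h. Phosphorylation was read as the coumarin/fluorescein emission ratio.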

[5] = test system: adoptive transfer (CD45RBhigh cells) colitis in SCID mice; experiment: Adoptive transfer in mice (in vivo v); set-up: species or system mouse; settings: for % Inhibition (of the induction window between naïve and vehicle animals): colon weight:length
Protocol: On Study day 0, female Balb/C mice are terminated and spleens obtained for CD45RB^high cell isolation (Using SCID IBD cell Separation protocol). Approximately 4×10^5 cells/mL CD45RB^high cells are then injected intraperitoneally (100 μL/mouse) into female SCID animals. On study day 14, mice are weighed and randomized into treatment groups based on body weight. On Day 14, compounds are administered BID, via oral gavage, in a peanut oil vehicle at the dose levels outlined below in Tables 6a and 6b and a dose volume of 5 mL/kg. Treatment continues until study day 42, at which point the animals are necropsied 4 hours after the morning administration. The colon length and weight are recorded and used as a secondary endpoint in the study as a measurement of colon oedema. The colon is then divided into six cross-sections, four of which are used for histopathology scoring (primary endpoint) and two are homogenised for cytokine analysis. Data shown is the % inhibition of the induction window between naïve animals and vehicle animals, where higher inhibition implies closer to the non-diseased, naïve, phenotype.

[6] = target: CYP3A4 (Homo sapiens (Human), UniProt P08684); experiment: CYP3A4 inhibition study; type: in vitro ADME; settings: for inhibition at 5 μM: human, read-out: % Inh (inhibition at 5 μM reported instead)
Protocol: Assessment of certain in vitro ADME (absorption, distribution, metabolism, and excretion) parameters for certain compounds of the invention was conducted by BioFocus (Saffron Walden, UK).

[7] = target: hERG channel (Homo sapiens (Human), UniProt Q12809); experiment: hERG inhibition (IonWorks patch clamp electrophysiology); type: cell-based; settings: human, 3 μM
Protocol: (§2) Compounds of the invention were tested for inhibition of the human ether a go-go (hERG) channel using IonWorks™ patch clamp electrophysiology at Essen Bioscience (Welwyn Garden City, England).

[8] = target: human ether a go-go (hERG) channel (Homo sapiens (Human), UniProt Q12809); experiment: as above; type: cell-based; settings: IonWorks patch clamp
Protocol: as §2

[9] = test system: Salmonella typhimurium strain TA100; experiment: Mutagenicity assessment (bacterial reverse mutation screen); type: cell-based; settings: strain TA100, presence or absence of S-9 mix, up to 1000 μg/plate analysable
Protocol: (§3) Studies were conducted by Sequani (Ledbury, Herefordshire, UK) to assess compounds of the invention for their ability to induce mutations in two histidine dependent auxotrophic mutants of Salmonella typhimurium, strains TA98 and TA100 in vitro.
(§4) The mutation screen was conducted using the plate incorporation method and was performed in both the presence and absence of S-9 mix (a liver post-mitochondrial fraction derived from the livers of Aroclor 1254 treated rats). The bacteria were exposed to test compounds dissolved in dimethylsulphoxide, which solvent was also used as the negative control. The dose levels used were 0.32, 1.6, 8, 40, 200, 1000 or 5000 μg/plate.
(§5) Precipitation was also noted in both strains at 1000 μg/plate in the presence and absence of S-9 mix.

[10] = test system: Salmonella typhimurium strain TA98; experiment: as above; type: cell-based; settings: strain TA98, presence or absence of S-9 mix, up to 1000 μg/plate analysable
Protocol: as §3, §4, §5

[11] = Hydrolytic stability study; type: physicochemical; settings: DMSO:water (3:1), 1 mg/mL
Protocol: Chemical stability of compounds of the invention was assessed in a mixture of DMSO and water (3:1) at a test compound concentration of 1 mg/mL
Sample Preparation • A 1.0 mg sample of test compound was dissolved in 750 μL of DMSO. Water (250 μL) was added slowly, ensuring no precipitation occurred.
Recording Stability • A 50 μL aliquot of the test solution was removed and analysed in duplicate by 5 μL HPLC injections. The peak area for the test compound was recorded following manual integration of the corresponding UV trace. • The test solution was heated to 60° C., with stirring, and 50 μL aliquots removed for HPLC analysis at 5 and 24 h timepoints.

[12] = 1 mg/kg, adoptive transfer mouse model

Chain of CYP3A4 (P08684 whole entry): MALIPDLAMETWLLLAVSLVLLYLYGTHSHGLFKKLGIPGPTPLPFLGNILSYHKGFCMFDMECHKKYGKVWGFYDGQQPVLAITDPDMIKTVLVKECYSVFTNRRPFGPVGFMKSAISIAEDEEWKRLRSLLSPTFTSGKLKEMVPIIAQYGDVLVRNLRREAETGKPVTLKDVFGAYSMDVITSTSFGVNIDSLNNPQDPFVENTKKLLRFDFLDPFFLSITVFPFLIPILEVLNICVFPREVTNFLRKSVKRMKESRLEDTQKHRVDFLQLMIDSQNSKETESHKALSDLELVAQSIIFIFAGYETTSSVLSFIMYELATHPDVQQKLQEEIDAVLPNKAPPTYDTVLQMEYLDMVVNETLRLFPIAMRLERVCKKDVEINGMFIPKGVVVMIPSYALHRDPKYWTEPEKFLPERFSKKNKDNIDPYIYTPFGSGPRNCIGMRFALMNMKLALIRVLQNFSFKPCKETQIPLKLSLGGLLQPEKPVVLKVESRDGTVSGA
Chain of p38 MAPKα (Q16539 whole entry): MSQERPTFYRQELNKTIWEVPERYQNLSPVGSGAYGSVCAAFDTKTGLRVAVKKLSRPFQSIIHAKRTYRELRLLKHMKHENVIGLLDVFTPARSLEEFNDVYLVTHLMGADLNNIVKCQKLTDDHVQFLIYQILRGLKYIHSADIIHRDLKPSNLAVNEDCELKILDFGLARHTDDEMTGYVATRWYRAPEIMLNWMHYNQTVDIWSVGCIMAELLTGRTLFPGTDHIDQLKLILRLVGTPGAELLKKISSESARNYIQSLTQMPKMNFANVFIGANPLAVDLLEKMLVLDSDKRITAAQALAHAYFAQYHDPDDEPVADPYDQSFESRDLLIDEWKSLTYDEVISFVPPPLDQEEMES
Chain of hERG channel (Q12809 whole entry): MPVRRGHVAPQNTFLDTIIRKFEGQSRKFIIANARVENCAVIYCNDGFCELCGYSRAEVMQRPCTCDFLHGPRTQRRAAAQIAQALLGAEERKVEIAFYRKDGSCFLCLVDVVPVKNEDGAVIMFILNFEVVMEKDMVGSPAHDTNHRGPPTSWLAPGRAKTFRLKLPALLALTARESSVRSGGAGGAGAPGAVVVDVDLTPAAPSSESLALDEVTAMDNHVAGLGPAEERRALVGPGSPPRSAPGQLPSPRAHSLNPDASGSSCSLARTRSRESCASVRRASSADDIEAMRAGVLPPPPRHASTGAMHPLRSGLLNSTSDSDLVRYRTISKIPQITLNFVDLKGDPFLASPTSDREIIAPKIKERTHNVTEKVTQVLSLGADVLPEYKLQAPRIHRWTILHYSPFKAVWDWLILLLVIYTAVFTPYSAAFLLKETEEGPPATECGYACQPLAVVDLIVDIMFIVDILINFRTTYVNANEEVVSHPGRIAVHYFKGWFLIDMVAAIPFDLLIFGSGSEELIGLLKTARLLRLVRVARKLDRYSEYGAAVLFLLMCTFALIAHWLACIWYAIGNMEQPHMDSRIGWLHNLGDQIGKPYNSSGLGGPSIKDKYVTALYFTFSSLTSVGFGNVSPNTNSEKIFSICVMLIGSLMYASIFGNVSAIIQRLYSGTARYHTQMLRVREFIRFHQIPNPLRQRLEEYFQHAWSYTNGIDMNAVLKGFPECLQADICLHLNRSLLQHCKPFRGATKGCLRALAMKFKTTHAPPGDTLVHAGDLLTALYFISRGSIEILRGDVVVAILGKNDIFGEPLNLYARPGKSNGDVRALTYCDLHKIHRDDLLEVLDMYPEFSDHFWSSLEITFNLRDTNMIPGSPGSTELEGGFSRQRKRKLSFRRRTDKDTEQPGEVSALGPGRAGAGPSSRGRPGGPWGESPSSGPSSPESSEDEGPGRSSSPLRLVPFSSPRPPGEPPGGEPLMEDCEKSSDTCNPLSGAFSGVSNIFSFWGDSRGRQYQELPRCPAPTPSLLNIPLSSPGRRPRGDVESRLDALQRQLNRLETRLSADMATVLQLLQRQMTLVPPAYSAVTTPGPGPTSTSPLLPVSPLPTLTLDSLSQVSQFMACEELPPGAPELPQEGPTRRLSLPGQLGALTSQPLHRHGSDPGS
Chain of human ether a go-go (hERG) channel (Q12809 whole entry): as above
Chain of c-Src (P12931 whole entry, looked up): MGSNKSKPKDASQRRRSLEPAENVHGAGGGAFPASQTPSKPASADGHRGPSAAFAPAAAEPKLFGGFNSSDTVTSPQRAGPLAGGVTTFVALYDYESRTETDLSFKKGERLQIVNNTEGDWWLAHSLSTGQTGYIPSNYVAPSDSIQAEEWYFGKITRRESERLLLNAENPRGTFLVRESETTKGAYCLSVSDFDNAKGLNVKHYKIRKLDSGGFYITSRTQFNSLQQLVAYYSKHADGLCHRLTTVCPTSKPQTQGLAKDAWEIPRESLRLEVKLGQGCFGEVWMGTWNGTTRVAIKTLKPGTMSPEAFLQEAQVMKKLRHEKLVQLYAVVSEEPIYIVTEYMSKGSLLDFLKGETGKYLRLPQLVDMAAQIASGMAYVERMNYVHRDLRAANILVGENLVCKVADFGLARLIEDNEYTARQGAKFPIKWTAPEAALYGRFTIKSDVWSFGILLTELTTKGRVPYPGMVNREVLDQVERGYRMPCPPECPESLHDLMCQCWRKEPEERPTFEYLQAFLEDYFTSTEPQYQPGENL
Chain of Lck (P06239 whole entry): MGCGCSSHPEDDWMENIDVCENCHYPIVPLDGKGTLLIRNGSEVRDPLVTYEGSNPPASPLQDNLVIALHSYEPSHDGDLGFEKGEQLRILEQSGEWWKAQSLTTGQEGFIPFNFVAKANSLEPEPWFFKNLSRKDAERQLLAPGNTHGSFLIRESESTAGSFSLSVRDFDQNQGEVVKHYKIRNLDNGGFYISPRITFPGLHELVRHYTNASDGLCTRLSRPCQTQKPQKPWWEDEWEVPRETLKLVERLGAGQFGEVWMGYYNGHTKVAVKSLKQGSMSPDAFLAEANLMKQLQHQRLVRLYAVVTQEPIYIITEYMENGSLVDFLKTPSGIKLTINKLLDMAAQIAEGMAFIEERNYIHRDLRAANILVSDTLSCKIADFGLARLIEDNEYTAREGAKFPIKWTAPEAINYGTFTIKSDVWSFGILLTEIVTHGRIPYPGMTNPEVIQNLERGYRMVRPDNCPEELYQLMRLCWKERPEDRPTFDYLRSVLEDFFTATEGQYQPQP

Compound `COCCOCCOCCOc1cc(Nc2nccc(Oc3ccc(NC(=O)Nc4cc(C(C)(C)C)cc(NS(C)(=O)=O)c4OC)c4ccccc34)n2)cc(OC)c1` [Example 4, N-(5-(tert-Butyl)-2-methoxy-3-(3-(4-((2-((3-methoxy-5-(2-(2-(2-methoxyethoxy)ethoxy)-ethoxy)phenyl)amino)pyrimidin-4-yl)oxy)naphthalen-1-yl)ureido)phenyl)methanesulfonamide] has a Kd [1] of 3 nM, a Kd [2] of 14 nM and a Kd [3] of 19 nM. For the same compound, the IC50 [4] was 14 nM, the “Colon weight:length” value ([5]; 0.3 mg/kg BID oral gavage, adoptive transfer mouse model) was 0.030 ± 0.008 and the “% Inhibition (of the induction window between naïve and vehicle animals)” value ([5]; 0.3 mg/kg BID oral gavage) was 62%. For the same compound, the “Colon weight:length” value ([5]; 1 mg/kg BID oral gavage, adoptive transfer mouse model) was 0.020 ± 0.002, the “% Inhibition (of the induction window between naïve and vehicle animals)” value ([5]; 1 mg/kg BID oral gavage) was 110% and the “IFNγ level in colon tissue” value [5, 12] was 2.8 ± 0.8 pg/mL. For the same compound, the “IL-8 level in colon tissue” value [5, 12] was 53.3 ± 23.0 pg/mL, the “levels of pro-inflammatory cytokines in samples of colon tissue” value ([5]; adoptive transfer mouse model) was “significantly reduced” and the IC50 ([6]; CYP3A4, 0 min preincubation) was > 5000 nM. For the same compound, the IC50 ([6]; CYP3A4, 30 min preincubation) was 2700 nM, the inhibition at 5 μM ([6]; CYP3A4, 0 min preincubation) was 9% and the inhibition at 5 μM ([6]; CYP3A4, 30 min preincubation) was 58%. The inhibition at 3 µM [7] was -4 ± 2%, the IC50 [8] was > 3000 nM and the “increases in revertant colonies” value [9] was “no dose-related or statistically significant increases”. The “increases in revertant colonies” value [10] was “no dose-related or statistically significant increases”, the “% Parent Remaining” value ([11]; 0 min) was 100% and the “% Parent Remaining” value ([11]; 60° C., 300 min) was 103%. For the same compound, the “% Parent Remaining” value ([11]; 60° C., 1440 min) was 102%.
